Assay results published in patent US20250171516A1, “PEPTIDE ACIDS AS A GLP1R AGONIST AND ANTIBODY-DRUG CONJUGATES THEREOF” (Regeneron Pharmaceuticals, Inc., priority 2023, published 2025).
Where “and” joins values, the source holds several entries; their conditions need not be identical. Identical values can stand only once. Non-standard residues stand in square brackets, D forms with d. Groups on a side chain read outwards from the residue. No end group written: not given here. M3190 payload = not defined here; AA10 = not defined here; AA1 = not defined here; AA2 = not defined here; AA6 = not defined here; AA9 = not defined here

Columns and labels:
GLP1R humanized mouse = assay: In vivo conversion of c-M3190 ATL to c-M6009 after s.c. dosing; details: 7 days
Experimental: From a tryptic digestion of the parent M3190-ATL, peptide c-M3190 is a peptide and their structures/sequences were determined by high resolution mass spectroscopy as shown below.
11.4 Syntheses and Characterization of Peptide Compounds Identified from M3190 Metabolite Study

GLP-1R [1] = target: T1, GLP-1R (Homo sapiens, UniProt P43220); assay: GLP-1R cAMP assay of peptides (Tables 10, 14, 15); assay type: cell-based
T1 sequence (P43220 24-463): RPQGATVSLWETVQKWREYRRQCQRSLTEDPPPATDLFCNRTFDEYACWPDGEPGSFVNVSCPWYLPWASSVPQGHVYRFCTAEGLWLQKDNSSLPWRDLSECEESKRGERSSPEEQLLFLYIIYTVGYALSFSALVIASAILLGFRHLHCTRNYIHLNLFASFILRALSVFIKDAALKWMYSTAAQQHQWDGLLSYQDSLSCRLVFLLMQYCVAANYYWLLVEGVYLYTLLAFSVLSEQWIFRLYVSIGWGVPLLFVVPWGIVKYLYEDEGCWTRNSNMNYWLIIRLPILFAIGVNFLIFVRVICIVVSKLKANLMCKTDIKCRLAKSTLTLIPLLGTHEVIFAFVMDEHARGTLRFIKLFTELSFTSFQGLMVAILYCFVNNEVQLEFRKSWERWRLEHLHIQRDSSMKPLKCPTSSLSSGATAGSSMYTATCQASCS

GLP-1R [2] = target: T1, GLP-1R; assay: b-arrestin 2 recruitment enzyme fragment complementation assay in HEK293/b-arrestin2/hGLP1R cells; assay type: cell-based; parameters: The full-length human GLP1R (NP_002053.3) with a C-terminus fusion to a small b-gal fragment called enzyme donor or ProLink (PK); host or cells: HEK293/b-arrestin2-EA (HEK293/Barrestin clone 2C6/hGLP1R-Prolink1 high sorted, ACL21687)
Description: To test the recruitment of b-arrestin 1 and b-arrestin 2 to GLP1R upon receptor activation, two enzyme fragment complementation assays were developed. To generate the assay cell lines, b-arrestin 1 fused to the b-galactosidase (b-gal) reporter fragment called enzyme acceptor (EA) (i.e., b-arrestin1-EA) or b-arrestin 2 fused to the b-gal reporter fragment EA (i.e., b-arrestin2-EA) were transduced into HEK293 cells using PathHunter b-Arrestinl Retroparticles (DiscoverX, #83-OT-TB-N-01) or PathHunter b-Arrestin2 Retroparticles (DiscoverX, #93-1087), respectively. The full-length human GLP1R (NP_002053.3) with a C-terminus fusion to a small b-gal fragment called enzyme donor or ProLink (PK) (i.e., hGLP1R-PK) was then engineered into HEK293/b-arrestinl-EA cells and HEK293/b-arrestin2-EA cells to generate the cell lines referred herein as HEK293/b-arrestin1/hGLP1R and HEK293/b-arrestin2/hGLP1R. Recruitment of b-arrestin 1 or b-arrestin 2 to GLP1R in these reporter cell lines brings both b-gal fragments (EA and PK) into close proximity, leading to reconstitution of a fully functional enzyme capable of hydrolyzing a substrate and generating a chemiluminescent signal.
(§1) For all assays, cells were seeded into 384-well plates (Falcon #353988) at 6,000 cells/well in assay media (Opti-MEM, 1% FBS, 1×Penicillin-Streptomycin) and incubated overnight at 37° C. Serial dilutions of the anti-GLP1R ATLs and non-binding control ATLs were performed in assay media. Serial dilutions of linker-payloads (LPs) were performed in 100% DMSO (ATCC, #4-X-5), followed by 1:100 dilution in assay media. Test articles were added to cells (1:5 dilution) using VIAFLO 384 (Integra) with the last well in each serial dilution series serving as a blank control containing only assay media for ATLs or assay media with 0.2% DMSO for LPs. The blank was plotted as a continuation of the serial dilution.
For b-arrestin 1 and b-arrestin 2 recruitment assays, after a 1-hour incubation at 37° C., PathHunter Detection Reagent (Eurofins DiscoverX, #93-0001) was added to the wells followed by a 1-hour incubation at room temperature. RLUs were measured on EnVision Plate Reader (Perkin Elmer).
(§2) EC50 values for luminescence assays were determined using a four-parameter logistic equation over a 12-point dose response curve (GraphPad Prism).

GLP-1R [3] = target: T1, GLP-1R; assay: CRE-Luc cAMP responsive luciferase reporter assay in HEK293/CRE-Luc/hGLP1R cells; assay type: cell-based; parameters: engineered to express full-length human GLP1R (GenBank: AAI12127.1) (HEK293/CRE-Luc/hGLP1R); expressed in transfected cells; host or cells: HEK293/CRE-Luc (HEK293/FSC11/pCDNA3.1 + GLP1R, ACL6822); details: for Emax: HEK293, read-out: Emax (% GLP-1), CRE-dependent reporter activity, HEK293/CRE-Luc/hGLP1R
Description: To test the activity of GLP1R agonist linker-payloads (LPs) and anti-GLP1R antibody-tethered ligands (ATLs) of the invention, a cell-based cAMP responsive luciferase reporter assay was developed. To generate the assay cell line, the firefly luciferase gene was placed under the control of four copies of a cAMP response element (4×CRE) located upstream of a minimal promoter and transfected into HEK293 cells and referred to herein as HEK293/CRE-Luc cells. HEK293/CRE-Luc cells were then engineered to express full-length human GLP1R (GenBank: AAI12127.1) (HEK293/CRE-Luc/hGLP1R).
as §1
For the CRE-Luc assay, after a 5-hours incubation at 37° C., luciferase activity was determined by addition of ONE-Glo reagent (Promega, #E6130) followed by measurement of relative light units (RLUs) on EnVision Plate Reader (Perkin Elmer).
as §2

[4] = Metabolite study in human liver S9 (high resolution LC-MS); assay type: in vitro ADME
Experimental: Metabolite studies were conducted using Q-M3190 and Q-6009 (Q is Glutamine).
Liver S9 is the supernatant obtained by grinding and centrifuging the liver cells. The enzymes content is lower compared to Hepatocytes. It mainly contains CYP enzymes and some biphasic enzymes (but no biphasic coenzyme), so additional coenzyme (NADPH and UDPGA, etc.) is needed to mediate the biphasic reaction.

[5] = pH stability (special liability); assay type: physicochemical
[6] = target: T2, GLP-1R of the cAMP assay of Tables 10, 14 and 15 (human, UniProt P43220 24-463, limits assumed); assay: cell-based or functional assay
[7] = target: hGLP1R-PK: full-length human GLP1R (NP_002053.3) with a C-terminus fusion to ProLink (PK), on … (human, UniProt P43220 24-463); assay: cell-based or functional assay
[8] = target: full-length human GLP1R (GenBank: AAI12127.1) expressed on HEK293/CRE-Luc/hGLP1R cells (human, UniProt P43220 24-463); assay: cell-based or functional assay
[9] = target: T2, GLP-1R of the cAMP assay of Tables 10, …; assay: cell-based or functional assay; remark: listed apart in the source

c-M3190 ATL: "Peptide C-M3190 identified from metabolite studies of M3190-antibody conjugate"; "From a tryptic digestion of the parent M3190-ATL" (LLQ(M3190 payload)GSGDIQMTQSPSSVSASVGDR; reading uncertain)
conversion of c-M3190 ATL to c-M6009 (GLP1R humanized mouse): slowly converted to c-M6009 after 7 days

CCc1cc(OCCCCn2cc(COCCOCCOCCOCCOCCOCCOCCOCCN)nn2)ccc1-c1ccc(C[C@H](NC(=O)[C@H](CC(=O)O)NC(=O)[C@H](CO)NC(=O)[C@@H](NC(=O)C(C)(Cc2ccccc2F)NC(=O)[C@@H](NC(=O)CNC(=O)[C@H](Cc2nnn[nH]2)NC(=O)C(C)(C)C(=O)NCCc2cnc[nH]2)[C@@H](C)O)[C@@H](C)O)C(=O)O)cc1 (stereo partly shown) [M6324]
solubility (Solubility in water): > 70000 µg/mL and > 30000 µM
EC50 (GLP-1R [1]): 882 nM
GLP-1R CAMP Max (GLP-1R [1]; Table 10): 53.33%
EC50 (GLP-1R [2]): > 1000 nM
Emax (GLP-1R [2]; HEK293, read-out: Emax (% GLP-1), b-Arrestin2 recruitment, HEK293/b-arrestin2/hGLP1R): 0.7%
Emax (GLP-1R [2]; read-out: b-arrestin 2 recruitment Emax relative to GLP-1, HEK293/b-arrestin2/hGLP1R cells): 0.7%
Emax (GLP-1R [3]): 91.6%

CCc1cc(OCCCCn2cc(COCCOCCOCCOCCOCCOCCOCCOCCN)nn2)ccc1-c1ccc(C[C@H](NC(=O)[C@H](CC(=O)O)NC(=O)[C@H](CO)NC(=O)[C@@H](NC(=O)C(C)(Cc2ccccc2F)NC(=O)[C@@H](NC(=O)CNC(=O)[C@H](Cc2nn[nH]n2)NC(=O)C(C)(C)C(=O)NCCc2cnc[nH]2)[C@@H](C)O)[C@@H](C)O)C(=O)N[C@@H](CCCc2cc(C)cc(C)c2)C(=O)O)cc1 (stereo partly shown) [M6009]
GLP-1R CAMP Max (GLP-1R [1]; Table 10): 139.7%
EC50 (GLP-1R [1]; Table 10, read-out: GLP-1R CAMP EC50): 2.23 nM
b-arrestin 2 recruitment (in words) (GLP-1R [2]; HEK293/b-arrestin2/hGLP1R cells): comparable activities as that of M3190
Emax (GLP-1R [3]): 92.1%
CRE-dependent luciferase reporter activity (in words) (GLP-1R [3]; HEK293/CRE-Luc/hGLP1R cells): comparable activities as that of M3190
solubility (physchem): > 70000 µg/mL and > 30000 µM
amount remaining / detected after incubation of Q-M6009 ([4]; Q-M6009 in human liver S9, text): 93%
Relative Abundance (% Total) ([4]; metabolites of Q-M3190 at 4 hours in human liver S9): 2.34 % Total
Relative Abundance (% Total) ([4]; metabolites of Q-M6009 at 4 hours in human liver S9): 13.14 % Total
Special liability [5]: stable at pH <3 or pH >11, and unstable at PH <1

B1: Q-M3190 (AA10-AA9-AA8-AA7-AA6-AA5-AA4-AA3-(Q-L)AA2-AA1-NH2) (peptide)
peptide: [AA10][AA9]GT[AA6]TSD[AA2]([Leu-Gln])[AA1]-NH2
modifications: reading uncertain; also: printed as Q-M3190 (AA10-AA9-AA8-AA7-AA6-AA5-AA4-AA3-(Q-L)AA2-AA1-NH2)
cAMP EC50 (nm) [6]: 1.07 nm

B2: M6324 (AA10-AA9-AA8-AA7-AA6-AA5-AA4-AA3-(L)AA2-OH) (peptide)
peptide: [AA10][AA9]GT[AA6]TSD[AA2](Leu)-OH
modifications: reading uncertain; also: printed as M6324 (AA10-AA9-AA8-AA7-AA6-AA5-AA4-AA3-(L)AA2-OH)
EC50 (M), b-Arrestin2 recruitment, HEK293/b-arrestin2/hGLP1R [7]: > 1e-06 M
Emax (% GLP-1), b-Arrestin2 recruitment, HEK293/b-arrestin2/hGLP1R [7]: 0.7 % GLP-1
EC50 (M), CRE-dependent reporter activity, HEK293/CRE-Luc/hGLP1R [8]: 2.93e-07 M
Emax (% GLP-1), CRE-dependent reporter activity, HEK293/CRE-Luc/hGLP1R [8]: 91.6 % GLP-1
GLP-1R CAMP EC50 [9]: 882 nM
GLP-1R CAMP Max (%) [9]: 53.3%
